PubChem BioAssay (NCI)
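Growth conditions: 96-well plates. Treatment: test compound, 48 hours, 5 concentrations. Analysis: linear interpolation between bracketing concentrations; unreached endpoints set to highest concentration. TGI: total growth inhibition.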

Assays:
Test in all cases: DTP human tumour cell line panel, 48 h
786-0 renal = tested on: 786-0 renal
A498 renal = tested on: A498 renal
A549 NSCLC = tested on: A549 NSCLC
BT-549 breast = tested on: BT-549 breast
CAKI-1 renal = tested on: CAKI-1 renal
CCRF-CEM leukemia = tested on: CCRF-CEM leukemia
COLO 205 colon = tested on: COLO 205 colon
DU-145 prostate = tested on: DU-145 prostate
EKVX NSCLC = tested on: EKVX NSCLC
HCT-116 colon = tested on: HCT-116 colon
HCT-15 colon = tested on: HCT-15 colon
HOP-62 NSCLC = tested on: HOP-62 NSCLC
HOP-92 NSCLC = tested on: HOP-92 NSCLC
HS 578T breast = tested on: HS 578T breast
HT29 colon = tested on: HT29 colon
IGROV1 ovarian = tested on: IGROV1 ovarian
K-562 leukemia = tested on: K-562 leukemia
KM12 colon = tested on: KM12 colon
LOX IMVI melanoma = tested on: LOX IMVI melanoma
M14 melanoma = tested on: M14 melanoma
MALME-3M melanoma = tested on: MALME-3M melanoma
MDA-MB-231 breast = tested on: MDA-MB-231 breast
MDA-MB-435 = tested on: MDA-MB-435
MDA-N = tested on: MDA-N
MOLT-4 leukemia = tested on: MOLT-4 leukemia
NCI-H226 lung = tested on: NCI-H226 lung
NCI-H23 lung = tested on: NCI-H23 lung
NCI-H522 lung = tested on: NCI-H522 lung
NCI/ADR-RES ovarian = tested on: NCI/ADR-RES ovarian
OVCAR-3 ovarian = tested on: OVCAR-3 ovarian
OVCAR-4 ovarian = tested on: OVCAR-4 ovarian
OVCAR-5 ovarian = tested on: OVCAR-5 ovarian
OVCAR-8 ovarian = tested on: OVCAR-8 ovarian
PC-3 prostate = tested on: PC-3 prostate
RPMI-8226 leukemia = tested on: RPMI-8226 leukemia
RXF 393 renal = tested on: RXF 393 renal
SF-268 CNS = tested on: SF-268 CNS
SF-295 CNS = tested on: SF-295 CNS
SK-MEL-2 melanoma = tested on: SK-MEL-2 melanoma
SK-MEL-28 melanoma = tested on: SK-MEL-28 melanoma
SK-MEL-5 melanoma = tested on: SK-MEL-5 melanoma
SK-OV-3 ovarian = tested on: SK-OV-3 ovarian
SN12C renal = tested on: SN12C renal
SNB-19 CNS = tested on: SNB-19 CNS
SNB-75 CNS = tested on: SNB-75 CNS
SR leukemia = tested on: SR leukemia
SW-620 colon = tested on: SW-620 colon
T-47D breast = tested on: T-47D breast
TK-10 renal = tested on: TK-10 renal
U251 CNS = tested on: U251 CNS
UACC-257 melanoma = tested on: UACC-257 melanoma
UACC-62 melanoma = tested on: UACC-62 melanoma
UO-31 renal = tested on: UO-31 renal
ACHN renal = tested on: ACHN renal
HCC-2998 colon = tested on: HCC-2998 colon
HL-60(TB) leukemia = tested on: HL-60(TB) leukemia
NCI-H460 lung = tested on: NCI-H460 lung
SF-539 CNS = tested on: SF-539 CNS
MCF7 breast = tested on: MCF7 breast

CC(C)(C)OC(=O)N1CC(O)O[C@H](c2ccccc2)[C@@H]1c1ccccc1 (stereo not given in full)
TGI (786-0 renal): 62.1 µM
TGI (A498 renal): 40.7 µM
TGI (A549 NSCLC): 39.5 µM
TGI (BT-549 breast): 36.4 µM
TGI (CAKI-1 renal): > 100 µM
TGI (CCRF-CEM leukemia): 48.4 µM
TGI (COLO 205 colon): 97.4 µM
TGI (DU-145 prostate): 53.8 µM
TGI (EKVX NSCLC): 40.9 µM
TGI (HCT-116 colon): > 100 µM
TGI (HCT-15 colon): 33.9 µM
TGI (HOP-62 NSCLC): 31.2 µM
TGI (HOP-92 NSCLC): 36.1 µM
TGI (HS 578T breast): > 100 µM
TGI (HT29 colon): 39.3 µM
TGI (IGROV1 ovarian): 40.4 µM
TGI (K-562 leukemia): > 100 µM
TGI (KM12 colon): 42 µM
TGI (LOX IMVI melanoma): > 100 µM
TGI (M14 melanoma): 30.2 µM
TGI (MALME-3M melanoma): 43.2 µM
TGI (MDA-MB-231 breast): 67.6 µM
TGI (MDA-MB-435): 32.2 µM
TGI (MDA-N): 59.5 µM
TGI (MOLT-4 leukemia): 97.5 µM
TGI (NCI-H226 lung): 45.7 µM
TGI (NCI-H23 lung): 29.5 µM
TGI (NCI-H522 lung): 45.6 µM
TGI (NCI/ADR-RES ovarian): > 100 µM
TGI (OVCAR-3 ovarian): 30.2 µM
TGI (OVCAR-4 ovarian): 36.2 µM
TGI (OVCAR-5 ovarian): 32.3 µM
TGI (OVCAR-8 ovarian): > 100 µM
TGI (PC-3 prostate): 27.8 µM
TGI (RPMI-8226 leukemia): > 100 µM
TGI (RXF 393 renal): 30 µM
TGI (SF-268 CNS): 77.6 µM
TGI (SF-295 CNS): 30.1 µM
TGI (SK-MEL-2 melanoma): 28.4 µM
TGI (SK-MEL-28 melanoma): 35.2 µM
TGI (SK-MEL-5 melanoma): > 100 µM
TGI (SK-OV-3 ovarian): 36.6 µM
TGI (SN12C renal): > 100 µM
TGI (SNB-19 CNS): 29.1 µM
TGI (SNB-75 CNS): 70.2 µM
TGI (SR leukemia): 62.8 µM
TGI (SW-620 colon): 32.8 µM
TGI (T-47D breast): > 100 µM
TGI (TK-10 renal): 33.1 µM
TGI (U251 CNS): 33.4 µM
TGI (UACC-257 melanoma): 35.3 µM
TGI (UACC-62 melanoma): 28.1 µM
TGI (UO-31 renal): 31.4 µM

COc1ccc2oc(=N)c(C(N)=O)cc2c1
TGI (786-0 renal): > 100 µM
TGI (A498 renal): > 100 µM
TGI (A549 NSCLC): > 100 µM
TGI (ACHN renal): > 100 µM
TGI (BT-549 breast): > 100 µM
TGI (CAKI-1 renal): > 100 µM
TGI (CCRF-CEM leukemia): > 100 µM
TGI (COLO 205 colon): > 100 µM
TGI (DU-145 prostate): > 100 µM
TGI (HCC-2998 colon): > 100 µM
TGI (HCT-116 colon): > 100 µM
TGI (HCT-15 colon): > 100 µM
TGI (HL-60(TB) leukemia): > 100 µM
TGI (HOP-62 NSCLC): > 100 µM
TGI (HOP-92 NSCLC): > 100 µM
TGI (HS 578T breast): 61.7 µM
TGI (HT29 colon): > 100 µM
TGI (IGROV1 ovarian): > 100 µM
TGI (K-562 leukemia): > 100 µM
TGI (KM12 colon): > 100 µM
TGI (LOX IMVI melanoma): > 100 µM
TGI (M14 melanoma): > 100 µM
TGI (MDA-MB-231 breast): > 100 µM
TGI (MDA-MB-435): > 100 µM
TGI (MDA-N): > 100 µM
TGI (MOLT-4 leukemia): > 100 µM
TGI (NCI-H226 lung): > 100 µM
TGI (NCI-H23 lung): > 100 µM
TGI (NCI-H460 lung): > 100 µM
TGI (NCI/ADR-RES ovarian): > 100 µM
TGI (OVCAR-3 ovarian): > 100 µM
TGI (OVCAR-4 ovarian): > 100 µM
TGI (OVCAR-5 ovarian): > 100 µM
TGI (OVCAR-8 ovarian): > 100 µM
TGI (PC-3 prostate): > 100 µM
TGI (RPMI-8226 leukemia): > 100 µM
TGI (RXF 393 renal): > 100 µM
TGI (SF-268 CNS): > 100 µM
TGI (SF-539 CNS): > 100 µM
TGI (SK-MEL-2 melanoma): 63 µM
TGI (SK-MEL-28 melanoma): > 100 µM
TGI (SK-MEL-5 melanoma): > 100 µM
TGI (SK-OV-3 ovarian): > 100 µM
TGI (SN12C renal): > 100 µM
TGI (SNB-19 CNS): > 100 µM
TGI (SNB-75 CNS): > 100 µM
TGI (SR leukemia): > 100 µM
TGI (SW-620 colon): > 100 µM
TGI (T-47D breast): > 100 µM
TGI (U251 CNS): > 100 µM
TGI (UACC-257 melanoma): > 100 µM
TGI (UACC-62 melanoma): > 100 µM

c1cc2ccc3cc4ncccc4c4ccc(c1)c2c34
TGI (786-0 renal): > 100 µM
TGI (A549 NSCLC): > 100 µM
TGI (ACHN renal): 31.6 µM
TGI (CAKI-1 renal): > 100 µM
TGI (CCRF-CEM leukemia): > 100 µM
TGI (COLO 205 colon): > 100 µM
TGI (DU-145 prostate): > 100 µM
TGI (EKVX NSCLC): > 100 µM
TGI (HCC-2998 colon): > 100 µM
TGI (HCT-116 colon): > 100 µM
TGI (HCT-15 colon): > 100 µM
TGI (HL-60(TB) leukemia): > 100 µM
TGI (HOP-62 NSCLC): > 100 µM
TGI (HOP-92 NSCLC): > 100 µM
TGI (HS 578T breast): > 100 µM
TGI (HT29 colon): > 100 µM
TGI (IGROV1 ovarian): 25 µM
TGI (K-562 leukemia): > 100 µM
TGI (KM12 colon): > 100 µM
TGI (LOX IMVI melanoma): > 100 µM
TGI (M14 melanoma): > 100 µM
TGI (MALME-3M melanoma): > 100 µM
TGI (MCF7 breast): > 100 µM
TGI (MDA-MB-231 breast): > 100 µM
TGI (MDA-MB-435): > 100 µM
TGI (MDA-N): > 100 µM
TGI (MOLT-4 leukemia): > 100 µM
TGI (NCI-H226 lung): > 100 µM
TGI (NCI-H23 lung): > 100 µM
TGI (NCI-H460 lung): > 100 µM
TGI (NCI-H522 lung): > 100 µM
TGI (NCI/ADR-RES ovarian): > 100 µM
TGI (OVCAR-3 ovarian): > 100 µM
TGI (OVCAR-5 ovarian): > 100 µM
TGI (OVCAR-8 ovarian): 67.4 µM
TGI (PC-3 prostate): > 100 µM
TGI (RPMI-8226 leukemia): 88.3 µM
TGI (RXF 393 renal): > 100 µM
TGI (SF-268 CNS): > 100 µM
TGI (SF-295 CNS): > 100 µM
TGI (SF-539 CNS): > 100 µM
TGI (SK-MEL-2 melanoma): 77 µM
TGI (SK-MEL-28 melanoma): > 100 µM
TGI (SK-OV-3 ovarian): > 100 µM
TGI (SN12C renal): > 100 µM
TGI (SNB-19 CNS): > 100 µM
TGI (SNB-75 CNS): > 100 µM
TGI (SR leukemia): > 100 µM
TGI (SW-620 colon): > 100 µM
TGI (T-47D breast): > 100 µM
TGI (TK-10 renal): > 100 µM
TGI (U251 CNS): > 100 µM
TGI (UACC-257 melanoma): > 100 µM
TGI (UACC-62 melanoma): > 100 µM
TGI (UO-31 renal): 40.2 µM
